{
  "source": "patent US12344599B2",
  "about": "“Prodigiosin analogs and methods of use” (Institute For Cancer Research, priority 2016, dated 2025)",
  "key": {"[1]": {"test_system": "CAL-27", "assay": "CellTiterGlo cell viability assay, CAL-27", "assay_type": "cell-based", "conditions": "Homo sapiens; CAL-27, head & neck squamous cell carcinoma, p53 H193L, 72 hours", "procedure": "(§1) • 1) Cell lines: HT29, SW480, DLD-1, HCT116, and p53-null HCT116 cells, H1975, MDA-MD-231, U251, FaDu, CAL-27, PANC-1, Aspc-1, and MRC5 were obtained from the ATCC and cultured as recommended. Cells were regularly authenticated by bioluminescence, growth, and morphologic observation. The cells were routinely examined for Mycoplasma and all cell lines underwent STR authentication. • 2) Western blotting: After treatment, protein lysates were collected for Western blot analysis. 15 μg of protein was used for SDS-PAGE. After primary and secondary antibody incubations, the signal was detected by chemiluminescent detection kit, imaged by Syngene (Imgen Technologies). […] The cell viability was assessed by CellTiterGlo bioluminescent cell proliferation assay (Promega), following the manufacturer's protocol. Bioluminescence imaging was measured using the IVIS imager. Percentage of cell viability (mean±SEM) at each dose was calculated against the respective DMSO control. The IC50 values were determined from the sigmoidal dose-response curves using GraphPad Prims4. • 4) Caspase activity assay: Cells were seeded in 96-well plate (1×10^4 cells/well). […] The caspase 3/7 activity was assessed by Caspase-Glo® 3/7 Assay kit (Promega), following the manufacturer's protocol. Bioluminescence imaging was measured using the IVIS imager. […]"}, "[2]": {"test_system": "HCT116 p53−/− cells", "assay": "qRT-PCR of p53 target gene mRNA, HCT116 p53−/−", "assay_type": "cell-based, human", "conditions": "1 μM", "procedure": "as §1"}, "[3]": {"test_system": "HT29 cells", "assay": "Western blot of apoptosis markers and PUMA, HT29", "assay_type": "cell-based, human", "procedure": "as §1"}, "[4]": {"test_system": "c-Myc and PUMA", "assay": "Western blot of c-Myc, PUMA and p53 target genes", "assay_type": "cell-based, human", "conditions": "colorectal cancer cell lines and Jurkat cells", "procedure": "After treatment, protein lysates were collected for Western blot analysis. A total of […] of protein was used for SDS-PAGE. After primary and secondary antibody incubations, the signal was detected by a chemiluminescence detection kit, imaged by Syngene (Imgen Technologies). Antibodies for PUMA (for IHC), p53 (Santa Cruz Biotechnology), caspase 8, cleaved caspase 8, caspase 9, caspase 3, cleavage PARP, eIF2α, p-eIF2α (Ser51), CHOP, ATF4, DR5, FOXO3a, p-FOXO3a (Ser253), NF-κB p65, p-NF-κB p65 (Ser536), c-Jun, p-c-Jun (Ser63), JNK, p-JNK (Thr183/Tyr185), PUMA (for WB), c-Myc, phosphor-S62-cMyc (Cell Signaling Technology), Noxa, p21 (Calbiochem), p73 (Bethyl laboratories Inc), Ran (BD Biosciences), […] (Sigma).\nTo test this hypothesis, two ERK1/2 inhibitors that act by different mechanisms were used. U0126 is an indirect ERK1/2 inhibitor. It inhibits MEK1 kinase and blocks the phosphorylation of ERK1/2. […] Consistent with a previous publication (Choi et al., Genes Dev, 2010, 24, 1236-1241), SCH772984 can inhibit ERK1/2 function after ERK1/2 is phosphorylated (FIG. 73), and the same is observed for PG3-Oc (FIG. 73)."}},
  "data": [
    {"compound": "CCCCCCCCOC(=O)CCc1c(C)[nH]c(/C=C2\\N=C(c3ccc[nH]3)C=C2OC)c1C", "note": "[PG3-Oc, Octyl (Z)-3-(5-((4′-methoxy-1H,5′H-[2,2′-bipyrrol]-5′-ylidene)methyl)-2,4-dimethyl-1H-pyrrol-3-yl)propanoate]", "values": [
      {"measurement": "IC50", "setting": "[1]", "result": 33.9, "unit": "nM"},
      {"measurement": "change of DR5 mRNA", "setting": "[2]", "result": "no significant change"},
      {"measurement": "induction of p21 mRNA", "setting": "[2]; 8 and 19 hours post-treatment", "result": "Over 3 fold"},
      {"measurement": "time at which PUMA protein was first induced post treatment", "setting": "[3]; HT29, time-course", "result": 16, "unit": "h"},
      {"measurement": "concentration sufficient to activate cleaved caspase-8 and -3 and cleaved-PARP", "setting": "[3]; western blot", "result": 0.5, "unit": "µM"},
      {"measurement": "effect on c-Myc", "setting": "[4]", "result": "potently downregulated c-Myc"}
    ]}
  ]
}
